How the values were obtained:
[1] = target: T1, 5-hydroxytryptamine receptor 2C (Rattus norvegicus) (UniProt P08909); assay: In vivo activity in rat mCPP challenge test following p.o. administration.; format: functional, organism-based
T1 sequence (whole entry): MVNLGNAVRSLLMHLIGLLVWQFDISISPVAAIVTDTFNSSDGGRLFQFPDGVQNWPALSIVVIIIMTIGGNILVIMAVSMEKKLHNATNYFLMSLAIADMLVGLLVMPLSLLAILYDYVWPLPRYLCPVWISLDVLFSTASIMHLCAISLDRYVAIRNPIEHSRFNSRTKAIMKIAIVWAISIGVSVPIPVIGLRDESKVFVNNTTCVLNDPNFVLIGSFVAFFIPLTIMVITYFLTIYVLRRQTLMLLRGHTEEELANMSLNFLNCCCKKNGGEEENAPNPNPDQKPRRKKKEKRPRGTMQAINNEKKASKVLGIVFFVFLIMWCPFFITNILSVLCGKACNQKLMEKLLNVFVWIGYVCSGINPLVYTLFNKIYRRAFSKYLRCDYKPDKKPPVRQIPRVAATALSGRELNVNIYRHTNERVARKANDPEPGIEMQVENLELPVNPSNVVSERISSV

[2] = target: 5-hydroxytryptamine receptor 2A (Homo sapiens, UniProt P28223); assay: biochemical; format: cell-based, L929
5-hydroxytryptamine receptor 2A, sequence (P28223 whole entry): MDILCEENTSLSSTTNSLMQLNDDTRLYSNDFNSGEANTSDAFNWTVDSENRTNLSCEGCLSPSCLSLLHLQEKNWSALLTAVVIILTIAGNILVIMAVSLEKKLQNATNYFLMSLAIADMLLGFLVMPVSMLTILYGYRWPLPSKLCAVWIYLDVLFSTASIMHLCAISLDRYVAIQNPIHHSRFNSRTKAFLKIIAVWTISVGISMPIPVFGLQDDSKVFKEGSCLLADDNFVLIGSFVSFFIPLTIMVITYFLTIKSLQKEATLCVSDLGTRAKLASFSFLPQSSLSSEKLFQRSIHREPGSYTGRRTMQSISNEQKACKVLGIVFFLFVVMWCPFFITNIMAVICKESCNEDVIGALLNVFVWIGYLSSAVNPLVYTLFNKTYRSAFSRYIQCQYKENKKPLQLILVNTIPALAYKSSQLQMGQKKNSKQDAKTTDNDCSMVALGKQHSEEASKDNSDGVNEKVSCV
Description: Binding affinity for human cloned 5-hydroxytryptamine 2A receptor expressed in L929 cells using [125I]R91150 as radioligand

[3] = target: Histamine H1 receptor (Homo sapiens, UniProt P35367); assay: Binding affinity for human cloned Histamine H1 receptor expressed in CHO cells using [3H]pyrilamine as radioligand; format: cell-based
Histamine H1 receptor, sequence (P35367 whole entry): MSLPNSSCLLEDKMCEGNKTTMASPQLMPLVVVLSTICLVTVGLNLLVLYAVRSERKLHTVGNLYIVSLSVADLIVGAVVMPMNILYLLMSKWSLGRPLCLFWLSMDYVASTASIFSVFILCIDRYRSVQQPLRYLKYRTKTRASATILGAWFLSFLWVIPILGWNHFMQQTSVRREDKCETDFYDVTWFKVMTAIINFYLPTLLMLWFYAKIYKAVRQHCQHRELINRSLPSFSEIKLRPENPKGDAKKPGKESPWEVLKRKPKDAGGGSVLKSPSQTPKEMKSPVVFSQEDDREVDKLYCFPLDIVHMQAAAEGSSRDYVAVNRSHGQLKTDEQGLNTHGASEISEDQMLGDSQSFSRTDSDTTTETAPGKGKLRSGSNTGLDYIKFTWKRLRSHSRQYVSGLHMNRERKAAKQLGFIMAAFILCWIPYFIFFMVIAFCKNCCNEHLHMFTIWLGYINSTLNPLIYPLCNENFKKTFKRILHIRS

[4] = target: T2, 5-hydroxytryptamine receptor 2C (Homo sapiens, UniProt P28335); assay: Binding affinity for human cloned 5-hydroxytryptamine 2C receptor expressed in CHO cells using [3H]mesulergine as radioligand; format: cell-based
T2 sequence (P28335 whole entry): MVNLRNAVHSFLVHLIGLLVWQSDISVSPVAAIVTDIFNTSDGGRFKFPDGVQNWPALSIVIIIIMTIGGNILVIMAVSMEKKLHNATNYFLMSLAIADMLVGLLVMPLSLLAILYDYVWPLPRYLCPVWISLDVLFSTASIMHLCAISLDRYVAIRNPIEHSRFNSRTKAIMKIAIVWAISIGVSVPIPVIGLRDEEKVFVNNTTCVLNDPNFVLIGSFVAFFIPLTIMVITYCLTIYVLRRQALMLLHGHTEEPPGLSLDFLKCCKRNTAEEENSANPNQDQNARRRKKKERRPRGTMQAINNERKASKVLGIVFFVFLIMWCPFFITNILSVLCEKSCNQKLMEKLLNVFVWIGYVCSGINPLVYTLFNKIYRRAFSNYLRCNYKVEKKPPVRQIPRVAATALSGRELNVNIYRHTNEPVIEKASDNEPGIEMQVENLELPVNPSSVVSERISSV

[5] = target: 5-hydroxytryptamine receptor 1D (Homo sapiens, UniProt P28221); assay: Binding affinity for human cloned 5-hydroxytryptamine 1D receptor
5-hydroxytryptamine receptor 1D, sequence (P28221 whole entry): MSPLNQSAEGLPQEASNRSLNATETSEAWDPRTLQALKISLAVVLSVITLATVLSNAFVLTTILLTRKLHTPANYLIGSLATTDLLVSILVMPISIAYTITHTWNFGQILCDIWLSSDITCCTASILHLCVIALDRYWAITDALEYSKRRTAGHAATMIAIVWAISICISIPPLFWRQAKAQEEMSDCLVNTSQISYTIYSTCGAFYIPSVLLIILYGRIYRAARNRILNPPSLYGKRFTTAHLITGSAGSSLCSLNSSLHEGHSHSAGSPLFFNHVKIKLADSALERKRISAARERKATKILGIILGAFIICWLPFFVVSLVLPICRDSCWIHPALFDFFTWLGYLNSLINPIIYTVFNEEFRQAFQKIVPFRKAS

[6] = target: T3, Alpha-2C adrenergic receptor (Homo sapiens, UniProt P18825); assay: Binding affinity for human cloned Alpha-2C adrenergic receptor
T3 sequence (P18825 whole entry): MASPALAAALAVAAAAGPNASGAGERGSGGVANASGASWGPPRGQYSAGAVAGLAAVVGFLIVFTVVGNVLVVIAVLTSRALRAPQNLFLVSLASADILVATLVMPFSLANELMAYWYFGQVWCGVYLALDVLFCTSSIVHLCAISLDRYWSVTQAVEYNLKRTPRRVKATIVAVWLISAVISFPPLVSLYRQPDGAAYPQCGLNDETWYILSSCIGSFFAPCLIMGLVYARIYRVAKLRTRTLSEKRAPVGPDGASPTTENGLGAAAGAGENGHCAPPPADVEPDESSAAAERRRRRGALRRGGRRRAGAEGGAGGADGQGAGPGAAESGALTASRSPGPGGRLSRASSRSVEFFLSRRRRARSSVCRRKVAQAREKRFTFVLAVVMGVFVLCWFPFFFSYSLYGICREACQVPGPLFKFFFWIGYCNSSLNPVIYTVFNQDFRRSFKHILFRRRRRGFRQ

[7] = test system: Rattus norvegicus; assay: In vivo activity in mCPP challenge test were performed in male Wistar rats by subcutaneous administration; format: functional; conditions: Rattus norvegicus, sc; read-out: ED50
[8] = target: D(2) dopamine receptor (Homo sapiens, UniProt P14416); assay: Binding affinity for human cloned Dopamine receptor D2L
D(2) dopamine receptor (Homo sapiens, UniProt P14416), sequence (P14416 whole entry): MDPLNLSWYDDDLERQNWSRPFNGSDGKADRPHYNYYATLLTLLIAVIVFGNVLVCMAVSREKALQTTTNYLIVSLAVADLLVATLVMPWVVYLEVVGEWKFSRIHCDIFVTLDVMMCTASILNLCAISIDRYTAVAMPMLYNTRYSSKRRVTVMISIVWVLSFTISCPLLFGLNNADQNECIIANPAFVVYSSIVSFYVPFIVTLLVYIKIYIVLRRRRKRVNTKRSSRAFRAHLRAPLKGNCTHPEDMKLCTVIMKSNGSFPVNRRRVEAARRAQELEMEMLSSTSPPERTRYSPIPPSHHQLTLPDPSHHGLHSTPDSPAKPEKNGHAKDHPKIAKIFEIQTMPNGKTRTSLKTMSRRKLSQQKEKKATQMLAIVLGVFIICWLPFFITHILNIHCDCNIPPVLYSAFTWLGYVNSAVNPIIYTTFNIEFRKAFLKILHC

[9] = target: D(3) dopamine receptor (Homo sapiens, UniProt P35462); assay: Binding affinity for human cloned Dopamine receptor D3
D(3) dopamine receptor, sequence (P35462 whole entry): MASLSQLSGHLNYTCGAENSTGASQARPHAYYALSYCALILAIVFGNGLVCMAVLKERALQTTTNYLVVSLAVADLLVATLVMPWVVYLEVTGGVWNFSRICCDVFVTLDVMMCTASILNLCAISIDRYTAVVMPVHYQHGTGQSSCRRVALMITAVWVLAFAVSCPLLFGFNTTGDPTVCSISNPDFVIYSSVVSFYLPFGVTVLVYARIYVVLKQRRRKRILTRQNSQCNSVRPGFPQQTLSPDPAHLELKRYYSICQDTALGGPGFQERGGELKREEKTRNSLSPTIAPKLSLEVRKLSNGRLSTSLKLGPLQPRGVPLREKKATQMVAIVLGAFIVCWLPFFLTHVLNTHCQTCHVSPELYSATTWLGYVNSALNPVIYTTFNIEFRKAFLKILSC

[10] = target: T4, Alpha-2A adrenergic receptor (Homo sapiens, UniProt P08913); assay: Binding affinity for human cloned Alpha-2A adrenergic receptor
T4 sequence (P08913 whole entry): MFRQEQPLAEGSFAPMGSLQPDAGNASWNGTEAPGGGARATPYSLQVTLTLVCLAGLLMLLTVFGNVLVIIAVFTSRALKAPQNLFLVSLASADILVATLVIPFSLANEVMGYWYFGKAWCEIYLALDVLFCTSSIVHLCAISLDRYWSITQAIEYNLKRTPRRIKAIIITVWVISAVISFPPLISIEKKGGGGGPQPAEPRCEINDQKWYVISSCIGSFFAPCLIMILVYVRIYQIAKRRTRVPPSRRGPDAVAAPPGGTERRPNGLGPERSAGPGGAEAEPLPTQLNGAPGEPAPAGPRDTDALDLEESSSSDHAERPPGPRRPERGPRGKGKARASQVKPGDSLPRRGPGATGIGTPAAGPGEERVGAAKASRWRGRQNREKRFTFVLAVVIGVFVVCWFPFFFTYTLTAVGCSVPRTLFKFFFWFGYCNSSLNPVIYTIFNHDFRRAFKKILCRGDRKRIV

[11] = target: T5, Alpha-1A adrenergic receptor (Homo sapiens, UniProt P35348); assay: Binding affinity for human cloned Alpha-1A adrenergic receptor
T5 sequence (P35348 whole entry): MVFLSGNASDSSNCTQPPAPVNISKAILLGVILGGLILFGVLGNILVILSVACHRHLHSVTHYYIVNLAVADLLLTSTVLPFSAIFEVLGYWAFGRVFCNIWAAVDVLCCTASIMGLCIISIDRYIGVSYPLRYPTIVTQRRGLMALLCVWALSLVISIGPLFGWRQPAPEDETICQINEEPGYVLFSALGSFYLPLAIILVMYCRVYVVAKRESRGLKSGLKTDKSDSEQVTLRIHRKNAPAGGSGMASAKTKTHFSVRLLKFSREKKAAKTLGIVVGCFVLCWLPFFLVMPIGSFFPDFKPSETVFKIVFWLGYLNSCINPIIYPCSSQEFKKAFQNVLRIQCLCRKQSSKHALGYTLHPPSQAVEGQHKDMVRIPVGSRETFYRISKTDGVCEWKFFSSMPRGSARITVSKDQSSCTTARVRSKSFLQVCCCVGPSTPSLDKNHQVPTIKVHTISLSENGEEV

[12] = target: D(2) dopamine receptor (Rattus norvegicus, UniProt P61169); assay: Binding affinity for rat Dopamine receptor D2
D(2) dopamine receptor (Rattus norvegicus, UniProt P61169), sequence (P61169 whole entry): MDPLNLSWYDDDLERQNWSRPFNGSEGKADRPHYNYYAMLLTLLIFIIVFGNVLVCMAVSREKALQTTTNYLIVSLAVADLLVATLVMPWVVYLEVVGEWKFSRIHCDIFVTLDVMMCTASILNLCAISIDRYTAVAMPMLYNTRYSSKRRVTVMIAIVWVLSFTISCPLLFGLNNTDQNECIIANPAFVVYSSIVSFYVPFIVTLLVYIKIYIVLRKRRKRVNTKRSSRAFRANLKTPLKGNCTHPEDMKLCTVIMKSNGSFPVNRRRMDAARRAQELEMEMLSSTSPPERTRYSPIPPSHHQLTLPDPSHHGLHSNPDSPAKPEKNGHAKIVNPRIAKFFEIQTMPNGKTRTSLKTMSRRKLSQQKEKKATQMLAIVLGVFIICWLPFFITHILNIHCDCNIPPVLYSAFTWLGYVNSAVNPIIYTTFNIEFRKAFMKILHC

[13] = target: T6, 5-hydroxytryptamine receptor 1A (Homo sapiens, UniProt P08908); assay: Binding affinity for human cloned 5-hydroxytryptamine 1A receptor
T6 sequence (P08908 whole entry): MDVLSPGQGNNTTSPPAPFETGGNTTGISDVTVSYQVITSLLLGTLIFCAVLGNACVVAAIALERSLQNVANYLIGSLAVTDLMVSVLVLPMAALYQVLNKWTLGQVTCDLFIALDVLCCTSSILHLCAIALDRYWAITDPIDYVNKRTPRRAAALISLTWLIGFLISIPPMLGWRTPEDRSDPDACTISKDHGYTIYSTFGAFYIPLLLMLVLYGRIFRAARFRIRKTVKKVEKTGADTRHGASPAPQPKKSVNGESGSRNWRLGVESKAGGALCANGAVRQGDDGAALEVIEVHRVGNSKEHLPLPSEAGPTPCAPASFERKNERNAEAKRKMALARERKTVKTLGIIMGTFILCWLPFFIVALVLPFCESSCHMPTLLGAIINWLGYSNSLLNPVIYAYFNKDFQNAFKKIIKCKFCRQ

Row | SMILES | ED50 [1] | IC50 [2] | IC50 [3] | IC50 [4] | other results
1 | Clc1cccc(N2CCN(CC3CC4c5ccccc5Cc5ccccc5N4O3)CC2)c1 (configuration not stated) | > 2.5 mg/kg | > 1000 nM | > 1000 nM | > 1000 nM | –
2 | CN(C)CCCCC1CC2c3ccccc3Cc3ccccc3N2O1 (configuration not stated) | > 2.5 mg/kg | > 1000 nM | > 1000 nM | > 1000 nM | –
3 | CN1CCN2c3ccccc3Cc3ccccc3C2C1 (configuration not stated) [MIANSERIN] | 2.5 mg/kg | – | – | – | IC50 [5]: 380 nM; IC50 [6]: 42.7 nM; ED50 [7]: 0.16 mg/kg; IC50 [8]: 7080 nM
4 | CN(C)C(=O)C1CC2c3ccccc3Cc3ccccc3N2O1 (configuration not stated) | > 2.5 mg/kg | > 1000 nM | > 1000 nM | > 1000 nM | –
5 | CN(C)CC1(C)CC2c3ccccc3Cc3ccccc3N2O1 (stereo in doubt; cis) | > 2.5 mg/kg | – | – | – | –
6 | CN1CCN(CC2CC3c4ccccc4Cc4ccccc4N3O2)CC1 (configuration not stated) | > 2.5 mg/kg | 282 nM | – | > 1000 nM | ED50 [7]: > 2.5 mg/kg
7 | CN(C)CC1(C)CC2c3ccccc3Cc3ccccc3N2O1 (stereo in doubt; trans) | > 2.5 mg/kg | – | – | – | –
8 | CN(CC1CC2c3ccccc3Cc3ccccc3N2O1)C(=O)C(F)(F)F (configuration not stated) | > 2.5 mg/kg | > 1000 nM | > 1000 nM | 692 nM | –
9 | CC(C)N(CC1CC2c3ccccc3Cc3ccccc3N2O1)C(C)C (configuration not stated) | > 2.5 mg/kg | > 1000 nM | 151 nM | 324 nM | –
10 | c1ccc2c(c1)Cc1ccccc1N1OC(CN3CCNCC3)CC21 (configuration not stated) | > 2.5 mg/kg | > 1000 nM | > 1000 nM | > 1000 nM | –
11 | CN(C)CCC1CC2c3ccccc3Cc3ccccc3N2O1 (configuration not stated) | 2.5 mg/kg | 91.2 nM | 83.2 nM | 37.2 nM | IC50 [5]: > 1000 nM; IC50 [6]: > 1000 nM; IC50 [9]: > 1000 nM; ED50 [7]: 2.5 mg/kg; IC50 [10]: > 1000 nM; IC50 [11]: 1910 nM; IC50 [12]: > 1000 nM; IC50 [8]: 9550 nM; IC50 [13]: > 1000 nM
12 | c1ccc2c(c1)CN(CC1CC3c4ccccc4Cc4ccccc4N3O1)C2 (configuration not stated) | > 2.5 mg/kg | > 1000 nM | > 1000 nM | > 1000 nM | –
